# Experimental data published in US20240300943A1, “NOVEL SALTS OF HETEROCYCLIC COMPOUND AS PROTEIN KINASE INHIBITOR AND USES THEREOF” (HK INNO.N CORPORATION, priority 2021, published 2024).
# Assays:
# [1] = molecular target: TYK2 (Homo sapiens, UniProt P29597); assay: ADP-Glo Tyk2 kinase assay; format: biochemical; details: read-out: IC50, In vitro enzyme TYK2
# Protocol: 10 mM of Compound 1 was diluted in DMSO to prepare samples at five concentrations (5,000 nM, 500 nM, 50 nM, 5 nM, and 0.5 nM). 10 mM of ATP was diluted at 1/40 in 1× kinase buffer to make a preparation. 1 mg/mL of Poly (Glu4, Tyr1) peptide was used as a stock solution. 100 ng/μL of Tyk2 enzyme was diluted at ½ in 1× kinase buffer to make a preparation. 1 μL of ATP, 1 μL of Poly (Glu4, Tyr1) peptide, and 1 μL of Compound 1 prepared as above were mixed, after which 2 μL of Tyk2 enzyme was finally added and reacted at 30° C. for 40 minutes. At this time, a tube without […] enzyme was prepared for a blank and a tube without Compound 1 was prepared as a positive control group together (a final concentration of samples was 1,000 nM, 100 nM, 10 nM, 1 nM, and 0.1 nM).
# Then, 5 μL of ADP-glo was added to each tube and reacted at 30° C. for 40 minutes, after which 10 μL of kinase detection reagent was added thereto and reacted at room temperature for 15 minutes. After 18 μL of the reactant was transferred to a 384 well plate, luminescence was measured using a plate reader.
# [2] = test system: JAK1; assay: Human whole blood assay, JAK1; format: cell-based; details: cytokine-induced STAT phosphorylation
# Protocol: A stock solution of Compound 1 obtained according to Preparation Example 1 was diluted with distilled water and then serially diluted at ⅕ with 4% DMSO. 5 μL of test material was added to 100 μL of whole blood collected using a 1.7 mL eppendorf tube, mixed, and incubated at 37° C. for 45 minutes.
# IL-6 (10 μg/ml) was diluted with 0.1% BSA/DW to reach 1 μg/mL each. 5 μL of IL-6 was added (at a final concentration of 50 ng/mL) and incubated at 37° C. for 15 minutes. At this time, 5 μL of DPBS was added as a non-stimulated control group. Lyse/fix buffer 5× was diluted 1× in distilled water and used. […]
# For double staining of CD4 and pSTATI, anti-[…] and anti-pSTATI were mixed in a staining buffer and added to each of the samples. […] On the next day, the results were analyzed using FACSCanto II. […]
# The numerical values analyzed by FlowJo were calculated to obtain IC50 values using GraphPad Prism 5 software (product name).
# No treatment response (NTR) was set as a reference, and the degree of the phosphorylation of STAT induced by cytokines was converted into a relative ratio (% control group). A dose-response plot was obtained for each concentration-dependent activity of each test material using GraphPad Prism (version 5.0) and ICso values were calculated.
# [3] = test system: DSS-induced animal model (C57BL/6J mice); assay: DSS-induced colitis model; format: in vivo; details: oral
# Protocol: To induce colitis in C57BL/6J mice, drinking water was treated with 3% dextran sodium sulphate (DSS) and provided each morning for eight days, and a negative control group was provided with 0% DSS.
# After mice were grouped into several groups (day O), the mice were orally dosed with 0.5% methylcellulose and Compound 1 obtained according to Preparation Example 1 as a test material at 9 a.m. and 5 p.m. every day from day 1 to day 7. Test animals were autopsied on day 8.
# Disease activity index (DAI) was calculated as body weight, fecal […], and fecal blood score to represent the severity of the disease. Body weight and food intake were monitored and evaluated at the start of the study and every 24 hours, and fecal samples were collected on days 0, 3, 5, and 7 and analyzed according to Table 6 below.
# After measuring the weight and length of the colon obtained by autopsy, the weight-to-length ratio was calculated.
# On day 8, blood was drawn from the heart into a centrifuge tube containing EDTA-K2 anticoagulant. After centrifugation (7000 rpm, 10 minutes, 4° C.), plasma was separated, and KC and MIP-2 were measured by Meso Scale Discovery Kit.
# The mRNA was extracted from a portion of large intestine tissues (same location for each animal) to analyze an expression level of MX2 and TNF-alpha in the tissues through qPCR.
# The large intestine part fixed with 10% formalin was cut with paraffin and stained with hematoxylin-eosin. The criteria for histological changes in the colon followed Table 7 below.
# [4] = test system: DNBS-induced animal model (IBD rat model); assay: DNBS-induced colitis model; format: in vivo; details: oral, once a day, four weeks, FIG. 26
# Protocol: Before induction of colitis with DNBS every week, experimental animals were fasted for 24 hours. Fasted animals were lightly anesthetized with isoflurane, catheter tubes with a length of 8 cm were inserted into the rat anus, and then colitis was induced by slowly injecting 250 μL of DNBS [15 mg (1st week), 30 mg (2nd week), 45 mg (3rd week) and 60 mg (4th week) in 250 μL of 50% ethanol] solution using a syringe pump at a rate of 100 μL/min. After the injection of the solution, a head-down posture was maintained for one minute so that the solution may spread evenly in the animal's intestines and may not leak out of the body. […]
# The large intestine tissue extracted from the sacrificed experimental animals was photographed to measure the length of the large intestine. The length of the large intestine was measured from the taken picture using an image program (Leica Application Suite V4). […] The measured weight and length were used to convert the large intestine ratio (mg/cm) (=large intestine weight (mg)/large intestine length (cm)).
# Calprotectin & c-reactive protein (CRP) and IFN-γ from serum collected at autopsy were analyzed by ELISA. […]
# Sequence of TYK2 (P29597 whole entry, species assumed): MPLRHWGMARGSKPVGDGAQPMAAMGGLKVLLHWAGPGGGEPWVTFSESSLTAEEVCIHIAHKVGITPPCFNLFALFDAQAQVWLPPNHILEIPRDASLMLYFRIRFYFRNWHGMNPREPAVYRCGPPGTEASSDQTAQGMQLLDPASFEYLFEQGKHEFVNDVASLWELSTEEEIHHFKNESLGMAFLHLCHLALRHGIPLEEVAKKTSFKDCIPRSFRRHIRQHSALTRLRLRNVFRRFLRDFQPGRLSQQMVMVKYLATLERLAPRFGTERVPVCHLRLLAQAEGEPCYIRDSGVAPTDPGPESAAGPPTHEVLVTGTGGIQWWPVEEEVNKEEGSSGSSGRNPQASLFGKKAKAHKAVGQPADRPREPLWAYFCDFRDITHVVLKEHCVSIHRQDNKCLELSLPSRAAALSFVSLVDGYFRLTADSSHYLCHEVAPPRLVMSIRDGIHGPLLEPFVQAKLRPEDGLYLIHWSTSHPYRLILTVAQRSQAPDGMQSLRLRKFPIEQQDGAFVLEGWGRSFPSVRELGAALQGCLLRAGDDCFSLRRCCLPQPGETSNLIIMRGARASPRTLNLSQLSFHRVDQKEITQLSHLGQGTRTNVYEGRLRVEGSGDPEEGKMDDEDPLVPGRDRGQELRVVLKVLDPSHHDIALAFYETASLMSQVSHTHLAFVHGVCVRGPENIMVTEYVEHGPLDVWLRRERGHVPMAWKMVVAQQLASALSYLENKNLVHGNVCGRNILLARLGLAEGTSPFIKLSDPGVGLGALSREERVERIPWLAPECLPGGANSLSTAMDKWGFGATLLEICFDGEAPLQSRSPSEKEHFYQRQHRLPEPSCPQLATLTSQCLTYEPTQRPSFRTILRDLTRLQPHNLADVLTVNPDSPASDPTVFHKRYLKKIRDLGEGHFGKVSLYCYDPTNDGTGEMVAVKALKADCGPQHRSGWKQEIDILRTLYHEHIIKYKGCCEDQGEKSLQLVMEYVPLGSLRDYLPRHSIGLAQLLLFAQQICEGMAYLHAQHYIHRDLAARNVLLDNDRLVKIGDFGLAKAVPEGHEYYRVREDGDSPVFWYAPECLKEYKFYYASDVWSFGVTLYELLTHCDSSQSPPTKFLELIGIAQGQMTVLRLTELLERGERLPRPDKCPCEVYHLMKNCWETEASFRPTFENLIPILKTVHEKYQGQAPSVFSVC
smiles,measurement,setting,value
"C[C@@H]1CN(C(=O)CC#N)CC=C1c1cc(NC(=O)C2CC2)nc2[nH]ccc12 [Compound 1, (S)—N-(4-(1-(2-cyanoacetyl)-3-methyl-1,2,3,6-tetrahydropyridin-4-yl)-1H-pyrrolo[2,3-b]pyridin-6-yl)cyclopropanecarboxamide]",IC50,[1],22 nM
same,IC50,[2],70 nM
same,Disease activity index (DAI),"[3]; 90 mg/kg, FIG. 21",reduced to half that of the control group (vehicle)
same,Weight-to-length ratio of colon,[3]; FIG. 22,lower value compared to the control group (vehicle)
same,Histopathological score,[3]; FIG. 24,lowered
same,KC concentration in plasma,"[3]; day 8, FIG. 23",decreased
same,MIP-2 concentration in plasma,"[3]; day 8, FIG. 23",decreased
same,Expression level of MX2 in the colon,"[3]; qPCR, FIG. 23",decreased
same,Expression level of TNF-alpha in the colon,"[3]; qPCR, FIG. 23",decreased
same,Degree of increase in disease activity index (DAI),"[3]; twice daily day 1 to day 7, FIG. 21",lower than that of the control group (vehicle)
same,Efficacy in IBD rat model,[4],exhibits efficacy in an IBD rat model
same,Level of proinflammatory cytokines compared to the control group (vehicle),[4],significantly lower level of proinflammatory cytokines
